Experimental data as given in US4409210A, “Antibiotic compound” (priority 1982, dated 1983).
In brackets after ≈: the same amount, converted by molar mass. Like-named read-outs stand apart in the source and are kept apart here. *1 amine or outer side, *2 acyl side, *3 side chain or, on linkers, in order; H or OH if unused. Where a SMILES comes first, the peptide text is derived from it. Bridges are numbered along the chain shown (N, C = ends). [ ]: non-standard residue; d: D form. ξ: configuration not given here. X2 = CCCCCCCCCCCC(CC(=O)[*:1])O[*:2]; ξAsp(3ξ-OH) = NC(C(=O)O)C(O)C(=O)O; X1 = O=C(C1C(O)CCN1[*:1])[*:2]

Tests used:
[1] = system: Streptococcus pyogenes S-23; test: MIC, serial two-fold dilution method (aerobic); type: cell-based
[2] = system: Streptococcus pyogenes Dick; test: MIC, serial two-fold dilution method (aerobic); type: cell-based; settings: for MIC: read-out: minimum inhibitory concentration (MIC)
[3] = system: Streptococcus pyogenes A9604; test: MIC, serial two-fold dilution method (aerobic); type: cell-based
[4] = system: Streptococcus pneumoniae IID-Type-I; test: MIC, serial two-fold dilution method (aerobic); type: cell-based; settings: for MIC: read-out: minimum inhibitory concentration (MIC)
[5] = system: Streptococcus pneumoniae A9585; test: MIC, serial two-fold dilution method (aerobic); type: cell-based
[6] = system: Streptococcus pneumoniae A15069; test: MIC, serial two-fold dilution method (aerobic); type: cell-based
[7] = system: Neisseria meningitidis A20048; test: MIC, serial two-fold dilution method (aerobic); type: cell-based
[8] = system: Haemophilus influenzae A9729; test: MIC, serial two-fold dilution method (aerobic); type: cell-based
[9] = system: Haemophilus influenzae A22481; test: MIC, serial two-fold dilution method (aerobic); type: cell-based
streptococci = test: MIC summary, streptococci; type: cell-based; settings: against streptococci
[10] = system: gram-positive rods and cocci (Clostridium, Peptostreptococcus, Propionibacterium acnes); type: cell-based; settings: various species of Clostridium and Peptostreptococcus and strains of Propionibacterium acnes
[11] = system: Anaerobic gram-negative rod bacteria, such as Bacteroides and Fusobacterium species; test: MIC summary, anaerobic gram-negative rods; type: cell-based
Veillonella species = test: MIC summary, Veillonella; type: cell-based; settings: gram-negative cocci
anaerobic bacteria = test: MIC summary, anaerobic bacteria; type: cell-based
S. aureus Smith = test: Experimental infection of mice, PD50; type: in vivo; settings: observed 5 days
S. aureus BX-1633 = type: in vivo, mice; settings: Exp. Run No. C-1319, observed 5 days
S. pyogenes A20201 = test: Experimental infection of mice, PD50; type: in vivo; settings: observed 5 days
S pneumoniae A20759 = type: in vivo, mice; settings: Exp. Run No. C-1176, observed 5 days
C. perfringens A9635 = type: in vivo, mice; settings: observed 5 days
[12] = system: aerobic and anaerobic gram-positive pathogens; set-up: species or system mice; settings: mouse
[13] = type: in vivo, mice; settings: acute toxicity
Method: The acute toxicity of Bu-2517 was determined by intravenous and intramuscular routes. No death occurred up to a dose of 400 mg/kg (iv) or 1600 mg/kg (im).

[14] = Streptococcus pyogenes S-23, GC medium, inoculum 10^6 CFU/ml
[15] = Streptococcus pyogenes Dick, GC medium, inoculum 10^6 CFU/ml
[16] = Streptococcus pyogenes A9604, GC medium, inoculum 10^6 CFU/ml
[17] = Streptococcus pneumoniae IID-Type-I, GC medium, inoculum 10^6 CFU/ml
[18] = Streptococcus pneumoniae A9585, GC medium, inoculum 10^6 CFU/ml
[19] = Streptococcus pneumoniae A15069, GC medium, inoculum 10^6 CFU/ml
[20] = Neisseria meningitidis A20048, GC medium, inoculum 10^6 CFU/ml
[21] = Haemophilus influenzae A9729, GC medium, inoculum 10^6 CFU/ml
[22] = Haemophilus influenzae A22481, GC medium, inoculum 10^6 CFU/ml
[23] = Exp. Run No. C-1247, 1.3 × 10^6 cell/mouse, 350 × LD50, im just before challenge
[24] = Exp. Run No. C-1312, 1.3 × 10^6 cell/mouse, 200 × LD50, im just before challenge
[25] = Exp. Run No. C-1313, 1.3 × 10^2 cell/mouse, 60 × LD50, im just before challenge
[26] = Exp. Run No. C-1318, 2.5 × 10^7 cell/mouse, 11 × LD50, im just before challenge

CCCCCCCCCCCC1CC(=O)N2CCCC2C(=O)NC(CO)C(=O)N2CCCC2C(=O)NC(CCCNC(=N)N)C(=O)NC(C(O)C(=O)O)C(=O)NC(CO)C(=O)N2CCC(O)C2C(=O)NC(C(O)C(=O)O)C(=O)O1 (stereo not drawn) [Bu-2517] (PSPR[ξAsp(3ξ-OH)]S[X1][ξAsp(3ξ-OH)]; linker N-C via X2; configuration not given here)
minimum inhibitory concentration (MIC) [1, 14]: 1.6 µg/mL (≈ 1.42 µM)
minimum inhibitory concentration (MIC) [2, 15]: 1.6 µg/mL (≈ 1.42 µM)
minimum inhibitory concentration (MIC) [3, 16]: 1.6 µg/mL (≈ 1.42 µM)
minimum inhibitory concentration (MIC) [4, 17]: 0.8 µg/mL (≈ 0.71 µM)
minimum inhibitory concentration (MIC) [5, 18]: 1.6 µg/mL (≈ 1.42 µM)
minimum inhibitory concentration (MIC) [6, 19]: 1.6 µg/mL (≈ 1.42 µM)
minimum inhibitory concentration (MIC) [7, 20]: > 100 µg/mL
minimum inhibitory concentration (MIC) [8, 21]: > 100 µg/mL
minimum inhibitory concentration (MIC) [9, 22]: > 100 µg/mL
fold more active than amphomycin (streptococci): 8-32 fold
inhibition of anaerobic gram-positive rods and cocci tested [10]: inhibited all
susceptibility of anaerobic gram-negative rod bacteria [11]: generally resistant
inhibition of two strains of Veillonella species (Veillonella species): inhibited at low concentration
antianaerobic activity, times more potent than amphomycin (anaerobic bacteria): 2-16 times
PD50 (mg/kg, im) (S. aureus Smith; [23]): 3.3 mg/kg
PD50 (mg/kg, im) (S. aureus Smith; [24]): 3.3 mg/kg
PD50 (mg/kg, im) (S. aureus BX-1633): 3.6 mg/kg
PD50 (mg/kg, im) (S. pyogenes A20201; Exp. Run No. C-1174, 1.3 × 10^2 cell/mouse, 30 × LD50, im just before challenge): 1.0 mg/kg
PD50 (mg/kg, im) (S. pyogenes A20201; [25]): 1.5 mg/kg
PD50 (mg/kg, im) (S pneumoniae A20759): 1.9 mg/kg
PD50 (mg/kg, im) (C. perfringens A9635; Exp. Run No. C-1175, 2.5 × 10^7 cell/mouse, 18 × LD50, im just before challenge): 5.5 mg/kg
PD50 (mg/kg, im) (C. perfringens A9635; [26]): 6.8 mg/kg
in vivo activity relative to the potency of amphomycin [12]: equal to up to three times
dose up to which no death occurred ([13]; im): 1600 mg/kg
intravenous dose at which mice died ([13]; intravenous): 800 mg/kg
dose up to which no death occurred ([13]; iv): 400 mg/kg
intravenous LD50 ([13]; mice, calculated): 560 mg/kg
pH range in which aqueous solution forms a precipitate: 2.4-4.2

CN[C@H](CC(C)C)C(=O)N[C@H]1C(=O)N[C@@H](CC(N)=O)C(=O)N[C@H]2C(=O)N[C@H]3C(=O)N[C@H](C(=O)N[C@H](C(=O)O)c4cc(O)cc(O)c4-c4cc3ccc4O)[C@H](O)c3ccc(c(Cl)c3)Oc3cc2cc(c3O[C@@H]2O[C@H](CO)[C@@H](O)[C@H](O)[C@H]2O[C@H]2C[C@](C)(N)[C@H](O)[C@H](C)O2)Oc2ccc(cc2Cl)[C@H]1O [Vancomycin]
MIC ([1]; Streptococcus pyogenes, S23, read-out: minimum inhibitory concentration (MIC)): 0.8 µg/mL (≈ 0.552 µM)
MIC ([2]; Streptococcus pyogenes): 0.8 µg/mL (≈ 0.552 µM)
MIC ([3]; Streptococcus pyogenes, A9604, read-out: minimum inhibitory concentration (MIC)): 0.4 µg/mL (≈ 0.276 µM)
MIC ([4]; Streptococcus pneumoniae): 0.8 µg/mL (≈ 0.552 µM)
MIC ([5]; Streptococcus pneumoniae, A9585, read-out: minimum inhibitory concentration (MIC)): 0.4 µg/mL (≈ 0.276 µM)
MIC ([6]; Streptococcus pneumoniae, A15069, read-out: minimum inhibitory concentration (MIC)): 0.4 µg/mL (≈ 0.276 µM)
MIC ([7]; Neisseria meningitidis, A20048, read-out: minimum inhibitory concentration (MIC)): > 100 µg/mL
MIC ([8]; Haemophilus influenzae, A9729, read-out: minimum inhibitory concentration (MIC)): > 100 µg/mL
MIC ([9]; Haemophilus influenzae, A22481, read-out: minimum inhibitory concentration (MIC)): > 100 µg/mL

Amphomycin
minimum inhibitory concentration (MIC) [1, 14]: 12.5 µg/mL
minimum inhibitory concentration (MIC) [2, 15]: 12.5 µg/mL
minimum inhibitory concentration (MIC) [3, 16]: 12.5 µg/mL
minimum inhibitory concentration (MIC) [4, 17]: 25 µg/mL
minimum inhibitory concentration (MIC) [5, 18]: 25 µg/mL
minimum inhibitory concentration (MIC) [6, 19]: 25 µg/mL
minimum inhibitory concentration (MIC) [7, 20]: > 100 µg/mL
minimum inhibitory concentration (MIC) [8, 21]: > 100 µg/mL
minimum inhibitory concentration (MIC) [9, 22]: > 100 µg/mL
PD50 (mg/kg, im) (S. aureus Smith; [23]): 9.0 mg/kg
PD50 (mg/kg, im) (S. aureus Smith; [24]): 3.3 mg/kg
PD50 (mg/kg, im) (S. aureus BX-1633): 4.4 mg/kg
PD50 (mg/kg, im) (S. pyogenes A20201; [25]): 3.5 mg/kg
PD50 (mg/kg, im) (C. perfringens A9635; [26]): 7.4 mg/kg

CC1(C)S[C@@H]2[C@H](NC(=O)[C@H](N)c3ccccc3)C(=O)N2[C@H]1C(=O)O [Ampicillin]
MIC ([1]; S23, Streptococcus pyogenes S-23, GC medium, inoculum 10^6 CFU/ml, read-out: minimum inhibitory concentration (MIC)): 0.013 µg/mL (≈ 0.0372 µM)
MIC [2, 15]: 0.013 µg/mL (≈ 0.0372 µM)
MIC ([3]; Streptococcus pyogenes A9604, GC medium, inoculum 10^6 CFU/ml, read-out: minimum inhibitory concentration (MIC)): 0.013 µg/mL (≈ 0.0372 µM)
MIC [4, 17]: 0.025 µg/mL (≈ 0.0715 µM)
MIC ([5]; Streptococcus pneumoniae A9585, GC medium, inoculum 10^6 CFU/ml, read-out: minimum inhibitory concentration (MIC)): 0.025 µg/mL (≈ 0.0715 µM)
MIC ([6]; Streptococcus pneumoniae A15069, GC medium, inoculum 10^6 CFU/ml, read-out: minimum inhibitory concentration (MIC)): 0.025 µg/mL (≈ 0.0715 µM)
MIC ([7]; Neisseria meningitidis A20048, GC medium, inoculum 10^6 CFU/ml, read-out: minimum inhibitory concentration (MIC)): 0.4 µg/mL (≈ 1.14 µM)
MIC ([8]; Haemophilus influenzae A9729, GC medium, inoculum 10^6 CFU/ml, read-out: minimum inhibitory concentration (MIC)): 0.8 µg/mL (≈ 2.29 µM)
MIC ([9]; Haemophilus influenzae A22481, GC medium, inoculum 10^6 CFU/ml, read-out: minimum inhibitory concentration (MIC)): 50 µg/mL (≈ 143 µM)
